# Source: ChEMBL document CHEMBL5537179, “Combination Therapy and Dual-Target Inhibitors Based on LSD1: New Emerging Tools in Cancer Therapy” (J Med Chem, 2024)
# Assays:
# [1] = Half life in human plasma; format: ADME, cell-free
# [2] = target: Spermine oxidase (Homo sapiens, UniProt Q9NWM0); assay: Inhibition of SMOX (unknown origin) using spermine as substrate preincubated for 1 hr followed by substrate addition and measured after 20 mins by luminometer analysis
# [3] = target: Tubulin; assay: Inhibition of tubulin polymerization (unknown origin) by fluorescence based assay; format: protein-complex assay, Homo sapiens
# [4] = target: T1, Lysine-specific histone demethylase 1A (Homo sapiens, UniProt O60341); assay: Inhibition of human LSD1 expressed in Escherichia coli Rosetta (DE3) cells using H3K4me2 peptide as substrate and measured after 1 hr by fluorescence based analysis
# [5] = Oral bioavailability in mouse; format: ADME, organism-based; conditions: in vivo
# [6] = Half life in CD-1 mouse at 2 mg/kg, iv; format: ADME, organism-based; conditions: in vivo
# [7] = Cmax in CD-1 mouse at 2 mg/kg, iv; format: ADME, organism-based; conditions: in vivo
# [8] = target: DCN1-like protein 1 (Homo sapiens, UniProt Q96GG9); assay: Inhibition of DCN1 (unknown origin) by TR-FRET analysis
# Chain of DCN1-like protein 1 (Q96GG9 whole entry): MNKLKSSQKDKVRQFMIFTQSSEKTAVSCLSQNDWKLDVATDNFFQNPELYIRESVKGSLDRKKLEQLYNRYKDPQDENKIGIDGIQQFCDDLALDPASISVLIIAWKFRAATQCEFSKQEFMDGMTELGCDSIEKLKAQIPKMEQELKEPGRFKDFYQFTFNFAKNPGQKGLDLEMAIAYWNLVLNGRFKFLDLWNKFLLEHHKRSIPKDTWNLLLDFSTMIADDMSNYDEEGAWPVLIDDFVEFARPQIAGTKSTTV
# [9] = Tmax in human at 5 mg/kg, po; format: ADME, organism-based; conditions: in vivo
# [10] = Cmax in human at 5 mg/kg, po; format: ADME, organism-based; conditions: in vivo
# [11] = system: MV4-11; assay: cells; conditions: Homo sapiens, MV4-11, 72 h
# [12] = system: Kasumi 1; assay: cells; conditions: Homo sapiens, Kasumi 1, 168 h
# [13] = in vitro; conditions: human, THP-1 cells
# [14] = target: T1, Lysine-specific histone demethylase 1A; assay: Inhibition of human LSD1 by luminescence assay
# [15] = target: T2, Bromodomain-containing protein 4 (Homo sapiens, UniProt O60885); assay: Inhibition of human BRD4 BD1 by TR-FRET assay
# [16] = target: T2, Bromodomain-containing protein 4; assay: Inhibition of human BRD4 BD2 by TR-FRET assay
# [17] = target: T3, Histone deacetylase 1 (Homo sapiens, UniProt Q13547); assay: Inhibition of HDAC1 (unknown origin)
# T3 sequence (Q13547 whole entry): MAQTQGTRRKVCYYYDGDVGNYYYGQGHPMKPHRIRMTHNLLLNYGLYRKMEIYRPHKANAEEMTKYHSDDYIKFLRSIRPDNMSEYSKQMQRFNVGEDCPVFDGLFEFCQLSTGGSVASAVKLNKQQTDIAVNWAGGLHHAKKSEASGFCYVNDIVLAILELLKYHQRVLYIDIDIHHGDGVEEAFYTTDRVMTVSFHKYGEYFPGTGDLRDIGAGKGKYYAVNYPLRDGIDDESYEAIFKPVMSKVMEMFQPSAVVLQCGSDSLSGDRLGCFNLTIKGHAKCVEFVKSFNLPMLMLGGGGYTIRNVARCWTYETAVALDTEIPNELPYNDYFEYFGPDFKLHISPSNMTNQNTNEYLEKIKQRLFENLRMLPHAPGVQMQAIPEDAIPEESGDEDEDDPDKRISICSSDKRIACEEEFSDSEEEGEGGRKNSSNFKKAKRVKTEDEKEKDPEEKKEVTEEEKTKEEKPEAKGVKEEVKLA
# [18] = target: T1, Lysine-specific histone demethylase 1A
# [19] = target: T1, Lysine-specific histone demethylase 1A; assay: Inhibition of LSD1 (unknown origin) at 10 uM relative to control
# [20] = target: Lysine-specific demethylase 6A (Homo sapiens, UniProt O15550); assay: Inhibition of human UTX using Biotin-KAPRKQLATKAARK(me3)SAPATGG as substrate by MALDI-TOF analysis
# Chain of Lysine-specific demethylase 6A (O15550 whole entry): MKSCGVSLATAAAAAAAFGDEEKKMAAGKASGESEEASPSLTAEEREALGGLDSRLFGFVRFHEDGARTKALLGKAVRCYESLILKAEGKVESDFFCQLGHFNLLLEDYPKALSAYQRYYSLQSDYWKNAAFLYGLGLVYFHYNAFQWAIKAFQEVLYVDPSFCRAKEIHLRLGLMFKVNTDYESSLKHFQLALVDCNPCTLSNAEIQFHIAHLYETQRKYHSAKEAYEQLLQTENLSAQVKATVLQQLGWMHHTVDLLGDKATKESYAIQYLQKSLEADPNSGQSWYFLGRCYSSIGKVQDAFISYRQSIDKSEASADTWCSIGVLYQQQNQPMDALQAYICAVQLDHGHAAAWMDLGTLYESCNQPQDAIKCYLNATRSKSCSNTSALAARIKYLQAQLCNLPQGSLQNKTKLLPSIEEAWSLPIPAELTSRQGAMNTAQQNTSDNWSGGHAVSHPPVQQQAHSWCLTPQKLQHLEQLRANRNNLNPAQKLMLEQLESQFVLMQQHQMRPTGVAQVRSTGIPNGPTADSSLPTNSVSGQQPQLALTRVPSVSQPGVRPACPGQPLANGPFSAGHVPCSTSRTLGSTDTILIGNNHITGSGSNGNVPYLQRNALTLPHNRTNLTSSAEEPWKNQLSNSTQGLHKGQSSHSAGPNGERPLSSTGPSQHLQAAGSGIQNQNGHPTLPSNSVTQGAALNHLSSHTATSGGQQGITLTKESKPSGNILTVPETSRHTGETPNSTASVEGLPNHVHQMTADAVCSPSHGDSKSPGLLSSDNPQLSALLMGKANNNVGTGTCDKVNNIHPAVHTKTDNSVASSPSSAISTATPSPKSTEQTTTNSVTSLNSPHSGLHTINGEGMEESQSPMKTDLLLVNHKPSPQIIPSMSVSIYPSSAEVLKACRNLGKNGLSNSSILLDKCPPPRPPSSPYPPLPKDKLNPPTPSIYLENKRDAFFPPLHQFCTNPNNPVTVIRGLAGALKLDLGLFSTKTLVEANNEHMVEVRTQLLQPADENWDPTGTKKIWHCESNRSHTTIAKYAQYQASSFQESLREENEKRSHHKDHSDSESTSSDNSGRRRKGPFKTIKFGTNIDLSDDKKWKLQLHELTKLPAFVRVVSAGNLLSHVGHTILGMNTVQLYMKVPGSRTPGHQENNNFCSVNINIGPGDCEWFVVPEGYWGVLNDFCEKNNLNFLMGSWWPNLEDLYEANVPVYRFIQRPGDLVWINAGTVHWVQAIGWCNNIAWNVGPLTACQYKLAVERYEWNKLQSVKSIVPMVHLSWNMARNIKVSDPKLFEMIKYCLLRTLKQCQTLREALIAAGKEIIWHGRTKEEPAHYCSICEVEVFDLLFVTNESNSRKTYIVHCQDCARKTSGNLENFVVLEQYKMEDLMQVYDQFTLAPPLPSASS
# [21] = target: T3, Histone deacetylase 1; assay: Inhibition of human recombinant HDAC1 using fluorogenic HDAC substrate preincubated for 30 mins followed by substrate addition and measured after 15 mins by fluorescence based assay
# [22] = system: Leukemia cell; assay: Antitumor activity against human Leukemia cells assessed as reduction in cell growth incubated for 72 hrs by MTT assay; format: functional, cell-based
# [23] = Half life in BALB/c mouse plasma at 5 mg/kg, ip measured after 24 hrs by LC-MS/MS analysis; format: ADME, organism-based
# [24] = Oral bioavailability in BALB/c mouse at 5 mg/kg measured after 24 hrs by LC-MS/MS analysis; format: ADME, organism-based; conditions: in vivo
# Chain of Spermine oxidase (Q9NWM0 whole entry): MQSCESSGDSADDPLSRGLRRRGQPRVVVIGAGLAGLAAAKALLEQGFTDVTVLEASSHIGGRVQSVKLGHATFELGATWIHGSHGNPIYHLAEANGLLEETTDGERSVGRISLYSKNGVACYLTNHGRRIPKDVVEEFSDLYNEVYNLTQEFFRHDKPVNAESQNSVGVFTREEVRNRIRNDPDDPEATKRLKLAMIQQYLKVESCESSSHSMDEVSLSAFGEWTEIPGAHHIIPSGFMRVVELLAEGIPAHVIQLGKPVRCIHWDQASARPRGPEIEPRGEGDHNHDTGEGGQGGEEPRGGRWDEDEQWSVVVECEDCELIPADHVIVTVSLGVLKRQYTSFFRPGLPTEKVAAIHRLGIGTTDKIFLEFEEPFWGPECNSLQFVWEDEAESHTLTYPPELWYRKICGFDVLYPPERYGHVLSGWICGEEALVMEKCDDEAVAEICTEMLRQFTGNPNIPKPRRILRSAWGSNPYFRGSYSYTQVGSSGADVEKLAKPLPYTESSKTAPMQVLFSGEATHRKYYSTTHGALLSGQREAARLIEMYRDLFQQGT
smiles,measurement,setting,value
Nc1nnc(CN[C@@H]2C[C@H]2c2ccc(OCc3ccccc3)cc2)o1,half-life,[1],22 h
C=C/C=C/c1cccc(Oc2cccc(Cl)c2CNc2nc(N)n[nH]2)c1/C=C/C=C,IC50,[2],148 µM
O=S1(=O)CCCN(S(=O)(=O)c2ccc(-c3cnc(C4CC4)o3)cc2)c2ccccc21,IC50,[3],3.1 µM
same,IC50,[4],2.8 µM
O=C(O)c1ccc(CN2CCC(CN[C@@H]3C[C@H]3c3ccccc3)CC2)cc1 [GSK2879552],bioavailability,[5],59.2%
same,half-life,[6],1.9 h
same,Cmax,[7],0.72 µg/mL
CN(C)CCn1nnnc1Sc1ccnc2nc(SCc3ccc(Br)cc3)nn12,IC50,[8],0.0148 µM
COc1ccc(-c2c(-c3ccc(C#N)c(F)c3)nc(N3CCC(N)CC3)n(C)c2=O)cc1F.O=S(=O)(O)c1ccccc1 [PULRODEMSTAT BESILATE],Tmax,[9],4 h
same,Cmax,[10],0.019 µg/mL
same,IC50,[11],1.4 µM
same,IC50,[12],0.002 µM
same,IC50 at 72 h,[13],0.007 µM
COC(=O)/C=C/c1ccc(CN(C(=O)OC(C)(C)C)C2CC2c2ccc(F)cc2)cc1 (stereo not given),IC50,[14],0.05 µM
C/C(=N\NC(=O)c1cccc(S(=O)(=O)N2CCOCC2)c1)c1cc(Cl)ccc1O,IC50,[15],0.077 µM
same,IC50,[16],0.033 µM
Nc1ccccc1NC(=O)c1ccc(CCCC(=O)Nc2ccc(C3CC3N)cc2)cc1 (stereo not given),IC50,[17],0.3 µM
same,IC50,[18],0.3 µM
Nc1n[nH]c(NCc2ccccc2Oc2ccc(-c3ccccc3)cc2)n1,inhibition,[19],52.1%
NC1CC1c1ccc(NC(=O)c2ccc(O)c3ncccc23)cc1 (stereo not given),IC50,[20],27 µM
same,IC50,[18],< 1 µM
NC1CC1c1ccc(NC(=O)CCCc2ccccc2)cc1 (stereo not given),IC50,[21],> 30 µM
N[C@H]1CC[C@H](N[C@@H]2C[C@H]2c2ccccc2)CC1,EC50,[22],0.0001 µM
same,half-life,[23],10 h
same,bioavailability,[24],77%
